Laboratory results published in the supplement of paper PMC10307832.

Tests used:
Experiment in all cases: relative viability (nuclei count vs DMSO), 5 days (fraction); higher = more cells survive
[1] = compound: COCC[n+]1c2c(n(Cc3cnccn3)c1C)C(=O)c1ccccc1C2=O [YM155] + Cc1nc(Nc2ncc(C(=O)Nc3c(C)cccc3Cl)s2)cc(N2CCN(CCO)CC2)n1 [Dasatinib] (partner 0.075 µM)
Method in brief: (§1)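 Lung cancer cell lines in 1536-well plates got either a single drug or a fixed anchor-drug dose together with five library-drug doses (not always all listed) in √10 steps, by pin tool, on the day after seeding. Nuclei were counted after 5 days, and relative viability is the treated-to-vehicle ratio of nuclei counts. Values are medians of duplicate plates.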

[2] = compound: CC(C)(C)c1cc(NC(=O)Nc2ccc(-c3cn4c(n3)sc3cc(OCCN5CCOCC5)ccc34)cc2)no1 [Quizartinib] + CC(C)C[C@H](NC(=O)[C@H](Cc1ccccc1)NC(=O)c1cnccn1)B(O)O [Bortezomib] (partner 0.002 µM)
Method in brief: as §1

[3] = compound: CC(C)(C)c1cc(NC(=O)Nc2ccc(-c3cn4c(n3)sc3cc(OCCN5CCOCC5)ccc34)cc2)no1 [Quizartinib] + C[C@]1(O)C[C@@H](c2nc(-c3ccc4ccc(-c5ccccc5)nc4c3)c3c(N)nccn32)C1 [Linsitinib] (partner 1 µM)
Method in brief: as §1

[4] = compound: COCC[n+]1c2c(n(Cc3cnccn3)c1C)C(=O)c1ccccc1C2=O [YM155] + CC(=O)c1c(C)c2cnc(Nc3ccc(N4CCNCC4)cn3)nc2n(C2CCCC2)c1=O [Palbociclib] (partner 0.5 µM)
Method in brief: as §1

Cell Line | relative viability ([1]; first compound 0.002 µM) | relative viability ([1]; first compound 0.006325 µM) | relative viability ([1]; first compound 0.02 µM) | relative viability ([1]; first compound 0.06325 µM) | relative viability ([2]; first compound 0.001 µM) | relative viability ([2]; first compound 0.003162 µM) | relative viability ([2]; first compound 0.01 µM) | relative viability ([2]; first compound 0.03162 µM) | relative viability ([2]; first compound 0.1 µM) | relative viability ([3]; first compound 0.001 µM) | relative viability ([3]; first compound 0.003162 µM) | relative viability ([3]; first compound 0.01 µM) | relative viability ([3]; first compound 0.03162 µM) | relative viability ([3]; first compound 0.1 µM) | relative viability ([4]; first compound 0.002 µM) | relative viability ([4]; first compound 0.006325 µM) | relative viability ([4]; first compound 0.02 µM) | relative viability ([4]; first compound 0.06325 µM)
PC-14 | 0.231 | 0.26 | 0.252 | 0.114 | 0.768 | 0.846 | 0.971 | 0.826 | 0.644 | 0.922 | 0.875 | 0.942 | 0.986 | 0.99 | 0.477 | 0.447 | 0.476 | 0.278
NCI-H1437 | 0.351 | 0.324 | 0.348 | 0.253 | 0.354 | 0.492 | 0.393 | 0.49 | 0.255 | 0.954 | 0.897 | 1.01 | 0.898 | 0.706 | 0.245 | 0.329 | 0.309 | 0.298
ABC-1 | 0.48 | 0.374 | 0.197 | 0.26 | 0.283 | 0.232 | 0.299 | 0.28 | 0.262 | 0.662 | 0.732 | 0.702 | 0.675 | 0.722 |  | 0.662 | 0.269 | 0.283
NCI-H2085 | 0.287 | 0.224 | 0.23 | 0.211 | 0.981 | 0.994 | 1.1 | 0.952 | 0.982 | 0.866 | 0.844 | 0.973 | 0.907 | 0.948 | 0.436 | 0.441 | 0.469 | 0.375
NCI-H2087 | 0.765 | 0.78 | 0.964 | 0.775 | 0.833 | 0.927 | 0.88 | 0.939 | 0.914 | 0.857 | 0.98 | 1.06 | 0.935 | 0.705 | 0.207 | 0.247 | 0.256 | 0.208
NCI-H2347 | 0.323 | 0.321 | 0.35 | 0.334 | 0.757 | 1.14 | 0.968 | 0.959 | 1.23 | 0.943 | 0.956 | 0.969 | 0.908 | 1.07 | 0.422 | 0.399 | 0.389 | 0.37
HOP-62 | 0.673 | 0.64 | 0.706 | 0.646 | 0.564 | 0.72 | 0.73 | 0.517 | 0.749 | 1.02 | 0.933 | 0.822 | 0.913 | 1.07 | 0.484 | 0.441 | 0.42 | 0.437
SW 1573 | 0.446 | 0.474 | 0.133 | 0.0759 | 0.71 | 0.804 | 1.24 | 0.684 | 1.01 | 0.738 | 0.691 | 0.81 | 0.642 | 0.8 | 0.415 | 0.314 | 0.126 | 0.0609
NCI-H460 | 0.487 | 0.499 | 0.582 | 0.547 | 0.881 | 0.987 | 1.24 |  | 0.68 | 0.583 | 0.572 | 0.782 |  | 0.708 | 0.166 | 0.169 | 0.226 | 0.212
NCI-H1993 | 0.568 | 0.572 | 0.478 | 0.539 | 1.2 | 1.17 | 1.19 | 1.02 | 1.33 | 0.739 | 0.716 | 0.817 | 0.757 | 0.833 | 0.557 | 0.657 | 0.554 | 0.43
LOU-NH91 | 0.539 | 0.62 | 0.569 | 0.599 | 0.481 | 0.509 | 0.538 | 0.433 | 0.513 | 0.899 | 0.954 | 0.996 | 0.825 | 1.11 | 0.527 | 0.509 | 0.628 | 0.544
LCLC-103H | 0.446 | 0.456 | 0.474 | 0.531 | 0.871 | 1.01 | 0.994 | 1 | 1.12 | 0.946 | 1.05 | 1.06 | 1.2 | 0.882 | 0.472 | 0.471 | 0.491 | 0.499
201T | 0.562 | 0.616 | 0.558 | 0.609 | 1.09 | 1.09 | 1.1 | 1.09 | 1.12 | 1.06 | 1.04 | 0.969 | 1.06 | 1.11 | 0.367 | 0.339 | 0.361 | 0.369
EKVX | 0.647 | 0.539 | 0.491 | 0.62 | 0.892 | 0.938 | 1.01 | 1.13 | 1 | 0.92 | 1 | 1.02 | 0.954 | 1.1 | 0.386 | 0.348 | 0.42 | 0.215
NCI-H1792 | 0.83 | 0.606 | 0.782 | 0.941 | 0.783 | 0.947 | 1.01 | 0.793 | 0.952 | 0.334 | 0.496 | 0.602 | 0.466 | 0.587 | 0.628 | 0.685 | 0.638 | 0.665
NCI-H1651 | 0.437 | 0.372 | 0.442 | 0.39 | 0.801 | 0.938 | 1.08 | 0.888 | 0.993 | 0.858 | 0.946 | 1.06 | 0.727 | 0.93 | 0.548 | 0.519 | 0.494 | 0.53
LU99A | 0.562 | 0.442 | 0.697 | 0.518 | 0.837 | 1.08 | 1.3 | 1.19 | 1.2 | 0.509 | 0.504 | 0.628 | 0.497 | 0.417 | 0.416 | 0.403 | 0.388 | 0.409
LC-2-ad | 0.529 | 0.547 | 0.674 | 0.649 | 0.955 | 0.954 | 1.11 | 1.06 | 0.996 | 0.77 | 0.782 | 0.909 | 0.76 | 0.605 | 0.455 | 0.485 | 0.511 | 0.411
